Results on one compound are retold here after ChEMBL document CHEMBL1146427, “Identification of the novel antimicrobial fatty acid (5Z,9Z)-14-methyl-5,9-pentadecadienoic acid in Eunicea succinea” (J Nat Prod, 1997).

In one experiment the test system is Escherichia coli. The experiment is described as follows: Antibacterial activity against Escherichia coli ATCC 25922 after overnight incubation. It counts as functional.
The subject of the next experiment is Staphylococcus aureus. The experiment is described as follows: Antibacterial activity against Staphylococcus aureus ATCC 25923 after overnight incubation. The class given is functional, organism-based.
For another experiment, the system named is Enterococcus faecalis. The experiment is described as follows: Antibacterial activity against Streptococcus faecalis group D ATCC 29212 after overnight incubation. It counts as functional, organism-based.
In a further experiment the test system is Pseudomonas aeruginosa. The experiment is described as follows: Antibacterial activity against Pseudomonas aeruginosa ATCC 27853 after overnight incubation. The class given is functional.

Converted amounts (≈) assume the structure as drawn.

`CC(C)CCC/C=C\CC/C=C\CCCC(=O)O`: the MIC against Escherichia coli is > 100 µg/mL; with Staphylococcus aureus it was 240 µM (≈ 60.6 µg/mL); in the experiment on Enterococcus faecalis, 160 µM (≈ 40.4 µg/mL); in the experiment on Pseudomonas aeruginosa, > 100 µg/mL. Also, the IC50 in the experiment with Staphylococcus aureus is 36 µg/mL (≈ 143 µM); in the experiment on Enterococcus faecalis, < 10 µg/mL.
